From patent US20220380375A1, “SUBSTITUTED AROMATIC FUSED RING DERIVATIVE AND COMPOSITION COMPRISING SAME, AND USE THEREOF” (Shenzhen TargetRx, Inc., priority 2019, published 2022) come the findings set out here.

Common to all, as to assay type: cell-based
Assay [1] has as its system Ba/F3 KIF5B-RET^V804L cells. The experiment in a line: Cytotoxicity assay (CellTiter-Glo), Ba/F3 KIF5B-RET V804L. Conditions: ratio of Ba/F3 parental IC50 to Ba/F3 KIF5B-RET^V804L IC50. As to the method:
(§1) Inhibitory effects of example compounds on the activity of Ba/F3 parental generation, Ba/F3 KIF5B-RET, Ba/F3 KIF5B-RET^V804M, Ba/F3 KIF5B-RET^V804L, Ba/F3 KIF5B-RET^G810R, Ba/F3 FLT3-ITD, Ba/F3 FLT3-ITD^D835Y, Ba/F3 FLT3-ITD^F691L cells were determined.
(§2) Materials and reagents: fetal bovine serum FBS (GIBCO, Cat #10099141), CellTiter-Glo® Luminescent Cell Viability Assay kit (Promega, Cat #G7572), 96-well black-wall clear flat-bottom plate (Corning®, Cat #3603).
(§3) 1. Cells in the logarithmic growth phase were harvested and counted with a […]. Cell viability was detected by a trypan blue exclusion method, ensuring that cell viability was 90% or more; 2. Cell concentration was adjusted to about 3000 cells/well; 90 μl of cell suspension was added to each well of the 96-well plate; 3. The cells in the 96-well plate were incubated overnight under the condition of 37° C., 5% CO2, and 95% humidity.
(§4) 1. A series of compound solutions were formulated by 3.16-fold serial dilution starting from a concentration of 10 μM, resulting in 9 concentrations. 10 μL of the compound solutions were added in each well of the 96-well plate seeded with cells in triplicate for each compound concentration; 2. The cells in the 96-well plate added with compounds were further incubated under the condition of 37° C., 5% CO2, and 95% humidity for 72 hrs, and then CTG analysis was carried out.
(§5) 1. CTG reagent was thawed, and the cell plate was equilibrated at room temperature for 30 minutes; 2. An equal volume […] of CTG solution was added to each well; 3. The cell plate was shaken on an orbital shaker for 5 minutes to lyse the cells; 4. The cell plate was placed at RT for 20 minutes to stabilize the luminescence signal; 5. Luminescence value was read.
(§6) Data were Analyzed by GraphPad Prism 5.0 Software, and Fitted by Nonlinear S-Curve Regression to obtain a dose-response curve, from which IC50 values were calculated.
(§7) Cell survival rate (%)=(luminescence value of drug to be tested−luminescence value of culture medium control)/(luminescence value of cell control−luminescence value of culture medium control)×100%.

The test system of assay [2] is Ba/F3 KIF5B-RET cells. Description: Cytotoxicity assay (CellTiter-Glo), Ba/F3 KIF5B-RET. Conditions: ratio of Ba/F3 parental IC50 to Ba/F3 KIF5B-RET IC50. As to the method:
as §1, §2, §3, §4, §5, §6, §7

For assay [3], the target named is T1, Ba/F3 KIF5B-RET cells (Homo sapiens, UniProt P07949).
T1 construct: Ba/F3 KIF5B-RET IC50 (nM); other: CellTiter-Glo, 72 hrs; fused on or other part: P33176 (Kinesin-1 heavy chain)
T1 sequence (P07949 whole entry, change not shown, the tested form may be a part): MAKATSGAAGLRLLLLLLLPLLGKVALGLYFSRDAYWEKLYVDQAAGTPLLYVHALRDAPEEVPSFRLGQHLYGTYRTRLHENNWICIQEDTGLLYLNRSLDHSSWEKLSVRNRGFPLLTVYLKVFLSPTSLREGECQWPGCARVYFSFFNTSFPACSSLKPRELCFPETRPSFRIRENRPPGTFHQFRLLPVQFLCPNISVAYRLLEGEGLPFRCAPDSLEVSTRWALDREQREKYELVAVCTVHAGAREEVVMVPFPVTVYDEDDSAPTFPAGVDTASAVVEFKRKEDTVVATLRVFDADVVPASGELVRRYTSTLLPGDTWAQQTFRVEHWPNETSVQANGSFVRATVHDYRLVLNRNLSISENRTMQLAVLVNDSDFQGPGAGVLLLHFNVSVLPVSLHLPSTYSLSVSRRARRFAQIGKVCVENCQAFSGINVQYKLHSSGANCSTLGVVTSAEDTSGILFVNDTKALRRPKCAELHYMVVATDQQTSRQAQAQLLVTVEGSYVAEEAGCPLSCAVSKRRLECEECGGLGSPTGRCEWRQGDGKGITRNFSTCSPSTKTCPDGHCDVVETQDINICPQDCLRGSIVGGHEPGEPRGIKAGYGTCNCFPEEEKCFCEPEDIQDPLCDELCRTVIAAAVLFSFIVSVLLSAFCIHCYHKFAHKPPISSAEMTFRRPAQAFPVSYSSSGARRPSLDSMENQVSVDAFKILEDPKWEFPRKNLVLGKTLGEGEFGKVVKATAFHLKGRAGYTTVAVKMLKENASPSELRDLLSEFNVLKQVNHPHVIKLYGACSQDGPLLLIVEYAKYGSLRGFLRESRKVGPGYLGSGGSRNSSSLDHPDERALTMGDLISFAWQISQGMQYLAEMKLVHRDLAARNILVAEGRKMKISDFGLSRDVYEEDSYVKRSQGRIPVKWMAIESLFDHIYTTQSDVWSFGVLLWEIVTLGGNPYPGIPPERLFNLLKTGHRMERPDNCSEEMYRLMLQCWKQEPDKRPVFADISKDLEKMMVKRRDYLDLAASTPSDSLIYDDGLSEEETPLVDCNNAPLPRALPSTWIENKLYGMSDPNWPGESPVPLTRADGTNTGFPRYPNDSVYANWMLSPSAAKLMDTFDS
The assay is described as above. Conditions: CellTiter-Glo, 72 hrs; read-out: Ba/F3 KIF5B-RET IC50. Here is the method:
as §1, §2, §3, §4, §5, §6, §7
A general note: In ATP-based viability assays light output follows the ATP content of the culture.

The test system of assay [4] is Ba/F3 parental generation cells. Description: Cytotoxicity assay (CellTiter-Glo), Ba/F3 parental. Conditions: Mus musculus, BaF3, Table 2, 72 hrs. As to the method: as §1, §2, §3, §4, §5, §6, §7
The target of assay [5] is T2, Ba/F3 KIF5B-RET^V804M cells (Homo sapiens, UniProt P07949, V804M, cells depend on it).
T2 construct: Ba/F3 KIF5B-RET^V804M IC50 (nM); other: CellTiter-Glo, 72 hrs; fused on or other part: P33176 (Kinesin-1 heavy chain)
T2 sequence (P07949 whole entry V804M, the tested form may be a part): as the sequence (P07949 whole entry, change not shown, the tested form may be a part) above, with V804M counted along it
Description: Cytotoxicity assay (CellTiter-Glo), Ba/F3 KIF5B-RET V804M. Conditions: CellTiter-Glo, 72 hrs; read-out: Ba/F3 KIF5B-RET^V804M IC50. Here is the method: as §1, §2, §3, §4, §5, §6, §7

The subject of assay [6] is Ba/F3 KIF5B-RET^V804M cells. The assay is described as above. Conditions: ratio of Ba/F3 parental IC50 to Ba/F3 KIF5B-RET^V804M IC50. Here is the method: as §1, §2, §3, §4, §5, §6, §7
Assay [7] relates to Ba/F3 FLT3-ITD^D835Y cells. Description: Cytotoxicity assay (CellTiter-Glo), Ba/F3 FLT3-ITD D835Y. Conditions: ratio of Ba/F3 parental IC50 to Ba/F3 FLT3-ITD^D835Y IC50. As to the method: as §1, §2, §3, §4, §5, §6, §7
Assay [8] addresses T3, Ba/F3 FLT3-ITD^D835Y cells (Homo sapiens, UniProt P36888, D835Y, cells depend on it, form not given).
T3 construct: Ba/F3 FLT3-ITD^D835Y IC50 (nM); other: CellTiter-Glo, 72 hrs
T3 sequence (P36888 1-993 D835Y): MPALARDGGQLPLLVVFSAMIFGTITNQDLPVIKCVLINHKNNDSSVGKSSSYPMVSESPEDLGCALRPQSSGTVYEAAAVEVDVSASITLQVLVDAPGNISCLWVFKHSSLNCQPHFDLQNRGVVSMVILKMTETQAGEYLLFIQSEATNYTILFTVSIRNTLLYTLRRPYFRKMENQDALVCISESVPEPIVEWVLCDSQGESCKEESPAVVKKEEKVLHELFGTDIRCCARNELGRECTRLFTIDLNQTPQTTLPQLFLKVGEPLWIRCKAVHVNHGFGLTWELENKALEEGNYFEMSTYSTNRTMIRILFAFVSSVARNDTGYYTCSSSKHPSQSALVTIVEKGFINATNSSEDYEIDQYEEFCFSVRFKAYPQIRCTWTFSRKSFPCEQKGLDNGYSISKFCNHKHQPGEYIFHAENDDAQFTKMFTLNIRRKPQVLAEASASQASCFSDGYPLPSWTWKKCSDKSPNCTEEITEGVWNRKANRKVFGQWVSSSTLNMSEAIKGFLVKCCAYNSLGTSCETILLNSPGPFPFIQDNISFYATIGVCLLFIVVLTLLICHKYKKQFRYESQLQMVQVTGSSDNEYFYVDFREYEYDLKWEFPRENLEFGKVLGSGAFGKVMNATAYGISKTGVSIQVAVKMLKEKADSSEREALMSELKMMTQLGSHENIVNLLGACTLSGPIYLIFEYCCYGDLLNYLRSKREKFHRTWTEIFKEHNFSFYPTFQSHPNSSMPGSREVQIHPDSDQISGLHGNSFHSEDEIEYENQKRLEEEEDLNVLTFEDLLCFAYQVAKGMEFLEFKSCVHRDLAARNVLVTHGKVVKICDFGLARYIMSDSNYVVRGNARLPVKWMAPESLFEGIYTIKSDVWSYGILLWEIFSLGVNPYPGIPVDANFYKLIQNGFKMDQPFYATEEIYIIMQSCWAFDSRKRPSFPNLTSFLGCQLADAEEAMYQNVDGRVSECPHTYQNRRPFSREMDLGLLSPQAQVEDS
The assay is described as above. Conditions: CellTiter-Glo, 72 hrs; read-out: Ba/F3 FLT3-ITD^D835Y IC50. As to the method: as §1, §2, §3, §4, §5, §6, §7

Each structure is given as a SMILES string.

Turning to `CC(C)n1nc(-c2ccc(CC(=O)Nc3cc(C(C)(C)C(F)(F)F)no3)cc2)c2c(N)ncnc21` [Compound T-8, 2-(4-(4-amino-1-isopropyl-1H-pyrazolo[3,4-d]pyrimidin-3-yl)phenyl)-N-(3-(1,1,1-trifluoro-2-methylprop-2-yl)isoxazol-5-yl)acetamide], in assay [1], the “Ba/F3 KIF5B-RET^V804L Selectivity on parental generation” value (“Ba/F3 KIF5B-RET^V804L Selectivity” below) turned out to be 2403.3. The “Ba/F3 KIF5B-RET Selectivity on parental generation” value (shortened to “Ba/F3 KIF5B-RET Selectivity”) in assay [2] was determined as 3569.9. The figures for the GI50 in assay [3], in assay [5] and in assay [8] were 1.03 nM, 3.6 nM and 7.34 nM, respectively. Moreover, the IC50 in assay [4] was found to be 3680 nM. In addition, in assay [6], the “Ba/F3 KIF5B-RET^V804M Selectivity on parental generation” value (shortened to “Ba/F3 KIF5B-RET^V804M Selectivity”) is 1021.4. Moreover, the “Ba/F3 FLT3-ITD^D835Y Selectivity on parental generation” value (“Ba/F3 FLT3-ITD^D835Y Selectivity” for short) in assay [7] was determined as 500.9.
In the case of `CC(C)n1nc(-c2ccc(CC(=O)Nc3cc(C(C)(C)C(F)(F)F)no3)cn2)c2c(N)ncnc21` [Compound T-9, 2-(6-(4-amino-1-isopropyl-1H-pyrazolo[3,4-d]pyrimidin-3-yl)pyridin-3-yl)-N-(3-(1,1,1-trifluoro-2-methylprop-2-yl)isoxazol-5-yl)acetamide], in assay [1], the “Ba/F3 KIF5B-RET^V804L Selectivity” value came out at 83.5. Besides, the “Ba/F3 KIF5B-RET Selectivity” value in assay [2] amounted to 377.8. Also, the figures for the GI50 in assay [3], in assay [5] and in assay [8] were 10.9 nM, 29.9 nM and 46.9 nM, respectively. Also, the IC50 in assay [4] was 4120 nM. Moreover, the “Ba/F3 KIF5B-RET^V804M Selectivity” value in assay [6] worked out at 137.7. Moreover, the “Ba/F3 FLT3-ITD^D835Y Selectivity” value in assay [7] amounted to 87.8.
Turning to `CC(C)c1nc(-c2ccc(CC(=O)Nc3cc(C(C)(C)C(F)(F)F)on3)cc2)c2c(N)ncnn12` [Compound T-10, 2-(4-(4-amino-7-isopropylimidazo[5,1-f][1,2,4]triazin-5-yl)phenyl)-N-(5-(1,1,1-trifluoro-2-methylprop-2-yl)isoxazol-3-yl)acetamide], the “Ba/F3 KIF5B-RET^V804L Selectivity” value in assay [1] is listed as 121.8. Further, the “Ba/F3 KIF5B-RET Selectivity” value in assay [2] stood at 609.2. Further, the GI50 in assay [3] worked out at 3.68 nM; in assay [5], 11.7 nM; in assay [8], 46.4 nM. Also, the IC50 in assay [4] was 2240 nM. Also, in assay [6], the “Ba/F3 KIF5B-RET^V804M Selectivity” value worked out at 191.6. Further, the “Ba/F3 FLT3-ITD^D835Y Selectivity” value in assay [7] is 48.3.
Turning to `[2H]C([2H])([2H])C(n1nc(-c2ccc(CC(=O)Nc3cc(C(C)(C)C(F)(F)F)no3)cc2)c2c(N)ncnc21)C([2H])([2H])[2H]` [Compound T-11, 2-(4-(4-amino-1-(propan-2-yl-1,1,1,3,3,3-d6)-1H-pyrazolo[3,4-d]pyrimidin-3-yl)phenyl)-N-(3-(1,1,1-trifluoro-2-methylpropan-2-yl)isoxazol-5-yl)acetamide], in assay [1], the “Ba/F3 KIF5B-RET^V804L Selectivity” value is reported as 902.8. Also, the “Ba/F3 KIF5B-RET Selectivity” value in assay [2] came out at 4236.2. In addition, the GI50 in assay [3] amounted to 1.3 nM; in assay [5], 3.63 nM; in assay [8], 17.9 nM. In addition, the IC50 in assay [4] amounted to 5510 nM. Further, in assay [6], the “Ba/F3 KIF5B-RET^V804M Selectivity” value was 1517.1. The “Ba/F3 FLT3-ITD^D835Y Selectivity” value in assay [7] was 307.7.
On to `[2H]C([2H])([2H])C(n1cc(-c2ccc(CC(=O)Nc3cc(C(C)(C)C(F)(F)F)on3)cc2)c2c(N)ncnc21)C([2H])([2H])[2H]` [Compound T-12, 2-(4-(4-amino-7-(propen-2-yl-1,1,1,3,3,d6)-7H-pyrrolo[2,3-d]pyrimidin-5-yl)phenyl)-N-(5-(1,1,1-trifluo-2-methylpropan-2-yl)isoxazol-3-yl)acetamide], for which, in assay [1], the “Ba/F3 KIF5B-RET^V804L Selectivity” value was 132.2. Moreover, the “Ba/F3 KIF5B-RET Selectivity” value in assay [2] was found to be 478.6. Also, the GI50 in assay [3] is 2.24 nM; in assay [5], 4.55 nM; in assay [8] it was 12.3 nM. Moreover, the concentration for half-maximal inhibition (IC50) in assay [4] stood at 1070 nM. In addition, the “Ba/F3 KIF5B-RET^V804M Selectivity” value in assay [6] is recorded as 235.6. Besides, the “Ba/F3 FLT3-ITD^D835Y Selectivity” value in assay [7] is 87.2.

One may read the IC50 as the concentration that inhibits the measured activity by half.
